Source: the supplement of paper PMC10307832

Tests used:
Experiment in all cases: relative viability (nuclei count vs DMSO), 5 days (fraction); higher = more cells survive
[1] = test system: LCLC-103H
Method in brief: (§1)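 Five library-drug doses in √10 steps were combined with a fixed anchor-drug dose, or a single drug was given alone, by pin tool to lung cancer cell lines in 1536-well plates the day after seeding. Nuclei were stained and counted after 5 days. Relative viability is the nuclei count in treated wells over that in vehicle wells, taken as the median of duplicate plates.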

[2] = test system: LXF-289
Method in brief: as §1

[3] = test system: NCI-H1355
Method in brief: as §1

[4] = test system: NCI-H1651
Method in brief: as §1

[5] = test system: NCI-H1755
Method in brief: as §1

[6] = test system: NCI-H1792
Method in brief: as §1

[7] = test system: NCI-H1915
Method in brief: as §1

[8] = test system: NCI-H2347
Method in brief: as §1

[9] = test system: NCI-H3122
Method in brief: as §1

[10] = test system: NCI-H322M
Method in brief: as §1

[11] = test system: NCI-H441
Method in brief: as §1

[12] = test system: NCI-H460
Method in brief: as §1

[13] = test system: NCI-H520
Method in brief: as §1

[14] = test system: NCI-H522
Method in brief: as §1

[15] = test system: NCI-H596
Method in brief: as §1

[16] = test system: NCI-H661
Method in brief: as §1

[17] = test system: NCI-H727
Method in brief: as §1

[18] = test system: PC-14
Method in brief: as §1

[19] = test system: RERF-LC-KJ
Method in brief: as §1

[20] = test system: SK-MES-1
Method in brief: as §1

[21] = test system: SW 900
Method in brief: as §1

With `CCN(CC)CCCCNc1ncc2cc(-c3cc(OC)cc(OC)c3)c(NC(=O)NC(C)(C)C)nc2n1` + Nc1ncn([C@H]2C[C@H](O)[C@@H](CO)O2)c(=O)n1 [Decitabine] (partner 2 µM) the relative viability ([1]; first compound 0.01 µM) was 0.775, the relative viability ([1]; first compound 0.03162 µM) was 0.782 and the relative viability ([1]; first compound 0.1 µM) was 0.758. It also gave a relative viability ([1]; first compound 0.3162 µM) of 0.809, a relative viability ([1]; first compound 1 µM) of 0.602 and a relative viability ([2]; first compound 0.01 µM) of 0.336. The relative viability ([2]; first compound 0.03162 µM) was 0.364, the relative viability ([2]; first compound 0.1 µM) was 0.363 and the relative viability ([2]; first compound 0.3162 µM) was 0.424. For the same compound, the relative viability ([2]; first compound 1 µM) was 0.377, the relative viability ([3]; first compound 0.01 µM) was 0.364 and the relative viability ([3]; first compound 0.03162 µM) was 0.368. For the same compound, the relative viability ([3]; first compound 0.1 µM) was 0.36, the relative viability ([3]; first compound 0.3162 µM) was 0.396 and the relative viability ([3]; first compound 1 µM) was 0.339. The relative viability ([4]; first compound 0.01 µM) was 0.625, the relative viability ([4]; first compound 0.03162 µM) was 0.68 and the relative viability ([4]; first compound 0.1 µM) was 0.63. It also gave a relative viability ([4]; first compound 0.3162 µM) of 0.75, a relative viability ([4]; first compound 1 µM) of 0.589 and a relative viability ([5]; first compound 0.01 µM) of 0.72. For the same compound, the relative viability ([5]; first compound 0.03162 µM) was 0.715, the relative viability ([5]; first compound 0.1 µM) was 0.712 and the relative viability ([5]; first compound 0.3162 µM) was 0.756. For the same compound, the relative viability ([5]; first compound 1 µM) was 0.685, the relative viability ([6]; first compound 0.01 µM) was 0.522 and the relative viability ([6]; first compound 0.03162 µM) was 0.552. For the same compound, the relative viability ([6]; first compound 0.1 µM) was 0.536, the relative viability ([6]; first compound 0.3162 µM) was 0.489 and the relative viability ([6]; first compound 1 µM) was 0.479. For the same compound, the relative viability ([7]; first compound 0.01 µM) was 0.24, the relative viability ([7]; first compound 0.03162 µM) was 0.243 and the relative viability ([7]; first compound 0.1 µM) was 0.256. The relative viability ([7]; first compound 0.3162 µM) was 0.242, the relative viability ([7]; first compound 1 µM) was 0.266 and the relative viability ([8]; first compound 0.01 µM) was 0.573. It also gave a relative viability ([8]; first compound 0.03162 µM) of 0.62, a relative viability ([8]; first compound 0.1 µM) of 0.623 and a relative viability ([8]; first compound 0.3162 µM) of 0.626. The relative viability ([8]; first compound 1 µM) was 0.578, the relative viability ([9]; first compound 0.01 µM) was 0.493 and the relative viability ([9]; first compound 0.03162 µM) was 0.472. For the same compound, the relative viability ([9]; first compound 0.1 µM) was 0.418, the relative viability ([9]; first compound 0.3162 µM) was 0.448 and the relative viability ([9]; first compound 1 µM) was 0.42. For the same compound, the relative viability ([10]; first compound 0.01 µM) was 0.691, the relative viability ([10]; first compound 0.03162 µM) was 0.767 and the relative viability ([10]; first compound 0.1 µM) was 0.687. It also gave a relative viability ([10]; first compound 0.3162 µM) of 0.696, a relative viability ([10]; first compound 1 µM) of 0.663 and a relative viability ([11]; first compound 0.01 µM) of 0.118. For the same compound, the relative viability ([11]; first compound 0.03162 µM) was 0.265, the relative viability ([11]; first compound 0.1 µM) was 0.242 and the relative viability ([11]; first compound 0.3162 µM) was 0.261. The relative viability ([11]; first compound 1 µM) was 0.244, the relative viability ([12]; first compound 0.01 µM) was 0.505 and the relative viability ([12]; first compound 0.03162 µM) was 0.591. It also gave a relative viability ([12]; first compound 0.1 µM) of 0.645, a relative viability ([12]; first compound 0.3162 µM) of 0.584 and a relative viability ([12]; first compound 1 µM) of 0.412. It also gave a relative viability ([13]; first compound 0.01 µM) of 0.51, a relative viability ([13]; first compound 0.03162 µM) of 0.466 and a relative viability ([13]; first compound 0.1 µM) of 0.501. It also gave a relative viability ([13]; first compound 0.3162 µM) of 0.313, a relative viability ([13]; first compound 1 µM) of 0.202 and a relative viability ([14]; first compound 0.01 µM) of 0.625. For the same compound, the relative viability ([14]; first compound 0.03162 µM) was 0.573, the relative viability ([14]; first compound 0.1 µM) was 0.748 and the relative viability ([14]; first compound 0.3162 µM) was 0.651. The relative viability ([14]; first compound 1 µM) was 0.548, the relative viability ([15]; first compound 0.03162 µM) was 1.15 and the relative viability ([15]; first compound 0.1 µM) was 1.03. It also gave a relative viability ([15]; first compound 0.3162 µM) of 1.01, a relative viability ([15]; first compound 1 µM) of 0.893 and a relative viability ([16]; first compound 0.01 µM) of 0.534. It also gave a relative viability ([16]; first compound 0.03162 µM) of 0.529, a relative viability ([16]; first compound 0.1 µM) of 0.572 and a relative viability ([16]; first compound 0.3162 µM) of 0.573. It also gave a relative viability ([16]; first compound 1 µM) of 0.455, a relative viability ([17]; first compound 0.01 µM) of 0.752 and a relative viability ([17]; first compound 0.03162 µM) of 0.871. It also gave a relative viability ([17]; first compound 0.1 µM) of 0.871, a relative viability ([17]; first compound 0.3162 µM) of 1.09 and a relative viability ([17]; first compound 1 µM) of 0.717. It also gave a relative viability ([18]; first compound 0.01 µM) of 0.239, a relative viability ([18]; first compound 0.03162 µM) of 0.298 and a relative viability ([18]; first compound 0.1 µM) of 0.262. It also gave a relative viability ([18]; first compound 0.3162 µM) of 0.249, a relative viability ([18]; first compound 1 µM) of 0.228 and a relative viability ([19]; first compound 0.01 µM) of 0.697. It also gave a relative viability ([19]; first compound 0.03162 µM) of 0.687, a relative viability ([19]; first compound 0.1 µM) of 0.74 and a relative viability ([19]; first compound 0.3162 µM) of 0.717. It also gave a relative viability ([19]; first compound 1 µM) of 0.603, a relative viability ([20]; first compound 0.01 µM) of 0.435 and a relative viability ([20]; first compound 0.03162 µM) of 0.425. The relative viability ([20]; first compound 0.1 µM) was 0.366, the relative viability ([20]; first compound 0.3162 µM) was 0.318 and the relative viability ([20]; first compound 1 µM) was 0.356. For the same compound, the relative viability ([21]; first compound 0.01 µM) was 0.509, the relative viability ([21]; first compound 0.03162 µM) was 0.401 and the relative viability ([21]; first compound 0.1 µM) was 0.459. It also gave a relative viability ([21]; first compound 0.3162 µM) of 0.416 and a relative viability ([21]; first compound 1 µM) of 0.437.
